What was measured:
[1] = target: PARP1 (Homo sapiens, UniProt P09874); assay: PARP1-DNA enzymatic trapping assay; assay type: biochemical; details: 10 nM PARP1, 5 nM DNA probe, 2 mM NAD+, fluorescence polarization read at 30 minutes
Protocol: Enzymatic trapping assay is to measure the dissociation process of PARP1 from fluorescein-labeled DNA during the enzymatic activity. Assay was conducted at a total 10 μL of reaction volume, including 10 nM PARP1 and 5 nM DNA probe in the binding buffer (50 mM Tris-HCl pH 8.0, 50 mM NaCl, 1 mM MgCl2, 0.1 mM EDTA, and 0.01% IGEPAL), and was commenced by adding a final concentration of 2 mM NAD+ substrate.
PARP1 Poly-ADP ribosylation (PARylation) inhibitory assay was conducted with compounds dissolved in DMSO at a starting concentration of 5 μM. Dissolved compounds were added to 384-well microplate and premixed with PARPI enzyme and DNA probe for 20 minutes incubation. Enzymatic reactions were started by adding NAD+ to mixture, and each well was read at 30 minutes by microplate reader (VICTOR Nivo®, PerkinElmer) to detect the fluorescence polarization signal at 480 nm excitation/530 nm dual emission.
All measured IC50 values were calculated using four parameters dose-response inhibition model in GraphPad Prism 8.0.2 (La Jolla, California, USA, www.graphpad.com).

[2] = tested on: DLD1 BRCA2−/− cells; assay: Cell proliferation assay (DLD1 BRCA2−/−); assay type: cell-based; details: Homo sapiens, DLD-1, 168 h, at least 7 days, Cell-Titer Glo, read-out: DLD1 BRCA2−/− anti-proliferation assay
Protocol: (§1) For PARPi sensitivity, exponentially growing MDA-MB-436 and DLD1 BRCA2^−/− cells were seed in 96 or 384-well plates at very low density with the goal of not splitting for at least 7 days (typically 0.3k-1.2k cells/well). Cells were plated on […] and treated with DMSO or increasing concentrations of PARP1 inhibitors on Day 0. At the end of the experiment, cell viability was estimated using Cell-Titer Glo (Promega).

[3] = tested on: MDA-MB-436 cells; assay: Cell proliferation assay (MDA-MB-436); assay type: cell-based; details: Homo sapiens, MDA-MB-436, 168 h, at least 7 days, Cell-Titer Glo, read-out: MDA-MB-436 anti-proliferation assay
Protocol: as §1

[4] = target: PARP2 (Homo sapiens, UniProt Q9UGN5); assay: PARP2-FL displacement assay; assay type: binding; details: 20 nM PARP2, 3 nM PARPi-FL, 4 hours incubation, fluorescence polarization
Sequence of PARP2 (Q9UGN5 whole entry): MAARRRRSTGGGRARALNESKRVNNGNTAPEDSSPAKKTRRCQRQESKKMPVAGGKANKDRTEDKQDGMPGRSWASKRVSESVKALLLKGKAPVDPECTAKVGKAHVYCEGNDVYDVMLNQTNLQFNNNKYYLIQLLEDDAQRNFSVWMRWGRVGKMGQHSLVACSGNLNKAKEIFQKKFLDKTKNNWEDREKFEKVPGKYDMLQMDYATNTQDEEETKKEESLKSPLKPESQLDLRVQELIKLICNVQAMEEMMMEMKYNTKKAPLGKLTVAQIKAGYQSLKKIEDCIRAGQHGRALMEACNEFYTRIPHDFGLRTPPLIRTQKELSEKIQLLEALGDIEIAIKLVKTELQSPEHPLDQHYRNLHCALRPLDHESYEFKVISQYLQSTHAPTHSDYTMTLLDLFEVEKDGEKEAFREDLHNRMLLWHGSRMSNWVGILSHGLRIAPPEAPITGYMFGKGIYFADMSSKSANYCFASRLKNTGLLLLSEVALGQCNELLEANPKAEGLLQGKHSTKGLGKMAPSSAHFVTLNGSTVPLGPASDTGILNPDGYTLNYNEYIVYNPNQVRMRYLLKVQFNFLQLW
Protocol: A potent PARP inhibitor (PARPi-FL, Cat No. 6461, Tocris Bioscience) conjugated to BDY FL fluorophore was adopted to characterize the activity of PARP2 by measuring the displacement of binding of PARPi-FL to PARP2. Compounds to be tested were prepared at a concentration of 1-10 mM, and made a 3-fold serial dilution by 100% DMSO in a polypropylene plate (Bio-One small volume microplate, black, Cat No. 784076, Greiner). 100 nL of test compounds were dispensed into a 384-well polypropylene microplate and added 10 μL of reaction solution including premixed 20 nM PARP2 and 3 nM PARPi-FL. After 4 hours of incubation at room temperature, the fluorescence polarization signal at 480/30 nm excitation and 530/30 nm dual emission was measured by VICTOR Nivo® multimode plate reader (PerkinElmer). All of the measured IC50 values were calculated using four parameters dose-response inhibition model in GraphPad Prism 8.0.2 (La Jolla, California, USA, www.graphpad.com).

Sequence of PARP1 (P09874 whole entry): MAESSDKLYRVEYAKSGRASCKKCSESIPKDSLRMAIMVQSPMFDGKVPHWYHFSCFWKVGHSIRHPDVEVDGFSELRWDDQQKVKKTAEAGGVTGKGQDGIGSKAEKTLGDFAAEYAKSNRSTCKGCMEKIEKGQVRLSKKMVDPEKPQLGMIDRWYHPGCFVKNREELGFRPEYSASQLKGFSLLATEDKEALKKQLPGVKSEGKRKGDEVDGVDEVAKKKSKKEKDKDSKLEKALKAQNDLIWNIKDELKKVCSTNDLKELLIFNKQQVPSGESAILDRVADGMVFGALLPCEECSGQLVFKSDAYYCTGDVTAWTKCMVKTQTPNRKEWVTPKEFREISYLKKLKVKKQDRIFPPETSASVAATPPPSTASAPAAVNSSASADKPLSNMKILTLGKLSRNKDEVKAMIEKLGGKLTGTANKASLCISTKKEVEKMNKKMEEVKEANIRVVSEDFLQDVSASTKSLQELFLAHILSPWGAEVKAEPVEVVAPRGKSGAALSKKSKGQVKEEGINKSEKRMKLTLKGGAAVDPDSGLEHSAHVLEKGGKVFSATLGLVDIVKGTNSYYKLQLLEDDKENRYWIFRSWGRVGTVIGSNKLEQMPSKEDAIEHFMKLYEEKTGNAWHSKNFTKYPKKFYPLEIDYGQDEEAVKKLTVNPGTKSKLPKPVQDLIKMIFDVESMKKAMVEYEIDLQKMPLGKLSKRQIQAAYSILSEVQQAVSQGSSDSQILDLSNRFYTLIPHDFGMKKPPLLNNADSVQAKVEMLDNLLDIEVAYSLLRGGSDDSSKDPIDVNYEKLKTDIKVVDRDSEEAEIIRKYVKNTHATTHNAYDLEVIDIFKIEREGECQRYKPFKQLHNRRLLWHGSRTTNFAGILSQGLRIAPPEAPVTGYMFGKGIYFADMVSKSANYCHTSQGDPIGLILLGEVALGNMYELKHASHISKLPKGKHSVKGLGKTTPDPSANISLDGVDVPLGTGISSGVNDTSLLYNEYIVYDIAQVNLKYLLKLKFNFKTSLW

Row | Compound | IC50 [1] [nM] | IC50 [2] [nM] | IC50 [3] [nM] | IC50 [4] [nM]
1 | CNC(=O)c1ccc(N2C[C@@H]3CN(Cc4cnc5c(c4)[nH]c(=O)c4cccn45)C[C@H]3C2)cn1 (racemic) [Compound 4] | 7.93 | 0.58 | 0.9 | 925
2 | CCc1cc2ncc(CN3C[C@@H]4CN(c5ccc(C(=O)NC)nc5)C[C@H]4C3)cc2[nH]c1=O [Compound 15] | 6.25 | 0.33 | 0.37 | 1270
3 | CCc1cc2ncc(CN3C[C@@H]4CN(c5ccc(C(=O)NC)nc5F)C[C@H]4C3)cc2[nH]c1=O [Compound 27] | 7.52 | 0.22 | 0.23 | 1100
4 | CCc1cc2cnc(CN3C[C@@H]4CN(c5ccc(C(=O)NC)nc5F)C[C@H]4C3)cc2[nH]c1=O [Compound 40] | 9.28 | 0.77 | 0.62 | 4050
5 | COCCNC(=O)c1ccc(N2C[C@H]3CN(Cc4cnc5c(c4)[nH]c(=O)c4cccn45)C[C@@H]3C2)cn1 [Compound 46] | 8.21 | 3.01 | 1.66 | 2440
6 | CNC(=O)c1ccc(N2C[C@H]3CN(Cc4cnc5c6c(c(=O)[nH]c5c4)CCC6)C[C@@H]3C2)c(F)n1 [Compound 48] | 12 | 1.02 | 0.74 | 2050
7 | COCCNC(=O)c1ccc(N2C[C@H]3CN(Cc4cnc5c6c(c(=O)[nH]c5c4)CCC6)C[C@@H]3C2)c(F)n1 [Compound 49] | 9.61 | 2.16 | 1.03 | 2110
8 | CNC(=O)c1ccc(N2C[C@H]3CN(Cc4cc5[nH]c(=O)c6c(c5cn4)CCC6)C[C@@H]3C2)c(F)n1 [Compound 54] | 6.44 | 0.54 | 0.45 | 7100
9 | O=C(N[C@H]1CCOC1)c1ccc(N2C[C@H]3CN(Cc4cc5[nH]c(=O)c6c(c5cn4)CCC6)C[C@@H]3C2)c(F)n1 [Compound 57] | 18.9 | 8.41 | 1.24 | 
10 | O=C(NC1CCOCC1)c1ccc(N2C[C@H]3CN(Cc4cc5[nH]c(=O)c6c(c5cn4)CCC6)C[C@@H]3C2)c(F)n1 [Compound 58] | 7.68 | 12.9 | 2.51 | 
11 | O=C(NC1COC1)c1ccc(N2C[C@H]3CN(Cc4cc5[nH]c(=O)c6c(c5cn4)CCC6)C[C@@H]3C2)c(F)n1 [Compound 59] | 5.17 | 1.35 | 0.37 | 

Further lines, results first:

Row | IC50 [1] [nM] | IC50 [2] [nM] | IC50 [3] [nM] | IC50 [4] [nM] | Compound
12 | 9.52 | 2.11 | 0.35 | 832 | O=C(NC1CC1)c1ccc(N2C[C@@H]3CN(Cc4cnc5c6c(c(=O)[nH]c5c4)COCC6)C[C@H]3C2)c(F)n1 (stereo in doubt) [Compound 72]
13 | 8.17 | 1.6 | 1.04 | 2470 | CNC(=O)c1ccc(N2C[C@H]3CN(Cc4ccc5c6c(c(=O)[nH]c5c4)COC6)C[C@@H]3C2)c(F)n1 [Compound 60]
14 | 9.14 | 7.97 | 1.35 |  | O=C(NC1COC1)c1ccc(N2C[C@H]3CN(Cc4ccc5c6c(c(=O)[nH]c5c4)COC6)C[C@@H]3C2)c(F)n1 [Compound 61]
15 | 7.82 | 5.86 | 1.53 |  | CNC(=O)c1ccc(N2C[C@H]3CN(Cc4cnc5c6c(c(=O)[nH]c5c4)COC6)C[C@@H]3C2)c(F)n1 [Compound 62]
16 | 101 | 141 | 7.29 |  | CNC(=O)c1ccc(N2C[C@H]3CN(Cc4cc5[nH]c(=O)c6c(c5cn4)COC6)C[C@@H]3C2)c(F)n1 [Compound 63]
17 | 8.01 | 0.55 | 0.24 | 2900 | O=C(NC1COC1)c1ccc(N2C[C@H]3CN(Cc4cnc5c(c4)[nH]c(=O)c4cccn45)C[C@@H]3C2)c(F)n1 [Compound 64]

From patent US20260226076A1, “FUSED MULTICYCLIC COMPOUNDS AND THEIR USE AS PARP1 INHIBITORS” (LAEKNA THERAPEUTICS SHANGHAI CO., LTD., priority 2022, published 2026)
